Laboratory results taken from patent publication US10487307B2, “Culture method for pluripotent stem cells” (FUJIFILM CORPORATION, priority 2013, dated 2019).

Columns and labels:
human iPS cells = test: Cell adhesiveness evaluation 2 (synthetic peptides added to cells seeded on natural vitronectin); type: cell-based; conditions: for adhesion of cells to the natural vitronectin on addition of peptide: 100 μM synthetic polypeptide; for Cell adhesion rate (%): 100 μM synthetic polypeptide in cell suspension, natural vitronectin surface 130 pmol/cm^2, 24 hours, no peptide = 100%, n=3
Description: The polypeptides shown in Table 8 were synthesized by an Fmoc solid-phase synthesis method. A surface onto which natural vitronectin was adsorbed at a concentration of 130 pmol/cm^2 was prepared, and then a cell suspension to which 100 μM of the aforementioned synthetic polypeptides were added was seeded into wells at a ratio of 30,000 cells/well. The number of adhesive cells 24 hours after seeding was calculated in the same manner as in <Cell adhesiveness evaluation 1>, and the results are shown in Table 8. In Table 8, the cell adhesion rate is expressed as a ratio calculated by regarding the cell adhesion rate obtained by using a culture solution not containing the synthetic polypeptides as being 100%. n=3.

human iPS cells ("Tic") [1] = test: Cell adhesiveness evaluation 1 (ALP activity of adhesive iPS cells); type: cell-based; conditions: 30,000 cells/well, 24 hours, natural vitronectin (sample 15) = 100%
Description: The cell adhesiveness of human iPS cells (“Tic”: Cell No. JCRB 1331: from National Institute of Biomedical Innovation. [567-0085, 7-6-8 Asagi Saito Ibaraki-City Osaka]) with respect to the aforementioned polypeptides was evaluated in the following manner.
As feeder cells for retaining the human iPS cells, EmbryoMax (registered trademark) (early mouse embryonic fibroblasts: resistant to hygromycin, treated with mitomycin C, derived from C57/BL6, third passage) (Millipore Corporation) was used. By using DMEM (Invitrogen) and a 10% (v/v) fetal bovine serum medium, the feeder cells were cultured for 24 hours and attached to a T25 flask (Corning Incorporated). As a medium for the human iPS cells, the one obtained by adding FGF-2 (Sigma-Aldrich Co, LLC.) to a medium composed as shown in Table 6 at a final concentration of 10 ng/ml was used.
By using the aforementioned medium, the human iPS cells were retained and cultured in a 5% (v/v, the same unit will be used hereinafter) CO2 incubator at 37° C. Except for the day after the seeding of the iPS cells, the medium was replaced every day. The subculture operation was performed by exfoliating the cells by using Dispase II (neutral protease Grade II, Roche) and separating the cells in an appropriate size by a pipetting operation.
The iPS cells cultured as described above were treated with TrypLE Select (Invitrogen) for 5 minutes at 37° C. and separated into a single cell. After being subjected to centrifugation for 2 minutes at 300 rpm, the cells were collected and suspended in TeSR2 (a medium not containing a heterogeneous animal-derived component and a serum component, STEMCELL Technologies.) containing Y-27362 ((R)-(+)-trans-N-(4-pyridyl)-4-(1-aminoethyl)-cyclohexane carboxamide.2HCl.H2O, an Rho binding kinase inhibitor, Wako Pure Chemical Industries, Ltd.) at a final concentration of 10 μM.
Each of RCP-1 to RCP-11, RCP-21, RCP-25, and RCP-26 as control, human vitronectin (extracted from human serum, BD Biosciences), and recombinant laminin (rLaminin-5: Oriental Yeast Co., ltd. and Human Recombinant Laminin-511: BIOLAMINA AB) was added to and suspended in a predetermined buffer (a dialysis buffer used in <GRAVY value and aggregation characteristics> described above for RCP-1 to RCP-11, and PBS for RCP-21, RCP-25, human vitronectin, and recombinant laminin) at the concentration shown in Table 7, thereby preparing samples 1 to 17. The samples were added to the respective wells of a 96-well plate and adsorbed onto the plate by being held for 2 hours at 37° C.
Into the respective wells of the 96-well plate treated with the peptides, iPS cells were seeded at a cell density of 30,000 cells/well. After the cells were cultured for 24 hours, the nonadhesive cells were washed off with PBS, and only the adhesive cells were immobilized by using 4% (v/v) paraformaldehyde (Wako Pure Chemical Industries, Ltd.). By using an Attophos (registered trademark) AP Fluorescent Substrate System (Promega Corporation), the ALP activity was calculated, and from the calibration curve, the number of undifferentiated iPS cells having the ALP activity was calculated. In Table 7, the cell adhesion rate is expressed as a ratio calculated by regarding the cell adhesion rate obtained from the sample 15 using natural vitronectin as being 100%. n=3.

iPS cells [2] = test: Cell growth property evaluation 2 (2-mercaptoethanol concentration in Essential 8); type: cell-based, human; conditions: for Cell growth rate: laminin 20 μg/ml, 72 hours
Description: A cell culture surface coated with RCP-11 was prepared in the same manner as in <Cell growth property evaluation 1> of Example 1. iPS cells collected in the same manner as in <Cell growth property evaluation 1> were suspended in the respective media composed as shown in Table 12 and seeded into wells at a cell density of 10,000 cells/well. After the cells were cultured for 72 hours, the number of cells were quantified in the same manner as in <Cell growth property evaluation 1>, and the cell growth properties were evaluated based on a cell growth rate which is a ratio calculated by regarding the number of cells cultured using RPC-11 as being 100%.

human iPS cells ("Tic") [3] = test: Cell growth property evaluation 1 (different media); type: cell-based; conditions: for Cell growth rate: laminin 20 μg/ml, 72 hours, RCP-11 with Essential 8 = 100%, n=3
Description: Furthermore, for evaluation, human iPS cells (“Tic”) that were retention-cultured as described in <Cell adhesiveness evaluation 1> of reference example were treated with TrypLE Select (Invitrogen) for 5 minutes at 37° C. and separated into a single cell. After being subjected to centrifugation for 2 minutes at 300 rpm, the cells were collected, suspended in each medium, and used for the evaluation in each example. Herein, Y-27362 ((R)-(+)-trans-N-(4-pyridyl)-4-(1-aminoethyl)-cyclohexane carboxamide.2HCl.H2O, an Rho binding kinase inhibitor, Wako Pure Chemical Industries, Ltd.) was added to all of the media at a final concentration of 10 μM.
Each of RCP-11, RCP-5, and recombinant laminin (Human Recombinant Laminin-511: BIOLAMINA AB) as control was added to and suspended in a predetermined buffer (a dialysis buffer used in <GRAVY value and aggregation characteristics> of reference examples for RCP-11 and RCP-5, and PBS for the recombinant laminin) at the final concentration shown in Table 11, thereby preparing polypeptide solutions. The polypeptide solutions were added to the respective wells of a plasma-treated 96-well plate made of polystyrene (BD Falcon) having a plasma-treated cell culture surface and held as they were so as to be adsorbed onto the plate for 2 hours at 37° C. In this way, a peptide-treated 96-well plate having a polypeptide-coated surface was obtained. The iPS cells suspended in the respective media shown in Table 11 were seeded into the respective wells of the obtained peptide-treated 96-well plate at a cell density of 10,000 cells/well. After the cells were cultured for 72 hours, nonadhesive cells were washed off with PBS, and only adhesive cells were immobilized using 4% by mass of paraformaldehyde (Wako Pure Chemical Industries, Ltd.). By using an Attophos (registered trademark) AP Fluorescent Substrate System (Promega Corporation), the ALP activity was calculated, and from the calibration curve, the number of undifferentiated iPS cells having the ALP activity was calculated. In Table 11, the cell adhesion rate is expressed as a ratio calculated by regarding the number of pluripotent stem cells after the culture for 72 hours in a combination of RCP-11 and Essential 8 as being 100%. n=3.
In Table 11, “% by mass” in the concentration of 2-meracptoethanol is a proportion (w/v %) of mass (g) of 2-meracptoethanol per 100 mL of the total volume of the medium at the time of culture.

iPS cells [4] = test: Growth evaluation, number of cells after 3 days; type: cell-based, human; conditions: added amount 1.28 μg/cm^2; 5,000 cells/well; sample 1 (RCP-1) = 100%
Description: By adding RCP-1 to RCP-11 and Human Recombinant Laminin-511 as control at the concentration shown in Table 9, samples 1 to 12 were prepared. The samples were seeded into a 96-well plate, onto which each of the polypeptides was adsorbed in the same manner as in <Cell adhesiveness evaluation 1>, at a ratio of 5,000 cells/well and cultured for 3 days in a CO2 incubator at 37° C. The number of cells after 3 days was calculated in the same manner as in <Cell adhesiveness evaluation 1>. In Table 9, the number of cells after 3 days is expressed as a ratio calculated by regarding the number of cells obtained by using the sample 1 as being 100%.

Substance	adhesion of cells to the natural vitronectin on addition of peptide (human iPS cells)	Cell adhesion rate (%) (human iPS cells)	other results
CCTDYTAECKPQVTRGDVFT (Peptide designed for comparative tests (Peptide-5))	significantly hindered	70.5 ± 7.1	
CCTDYTAECKPQVTRGEVFT (Peptide designed for comparative tests (Peptide-7))	not hindered	86.7 ± 7.1	
DKKCQCDELCSYYQSCCTDY (Peptide designed for comparative tests (Peptide-4))	significantly hindered	63.8 ± 11.6	
DQESCKGRCTEGFNVDKKCQ (Peptide designed for comparative tests (Peptide-1))	not hindered	91.8 ± 1.2	
EGFNVDKKCQCDELCSYYQS (Peptide designed for comparative tests (Peptide-3))	not hindered	102.5 ± 4.2	
KGRCTEGFNVDKKCQCDELC (Peptide designed for comparative tests (Peptide-2))	not hindered	92.7 ± 19.6	
Laminin-511: recombinant laminin (Human Recombinant Laminin-511: BIOLAMINA AB)			Cell adhesion rate (%) (human iPS cells ("Tic") [1]; added amount 5.0 μg/cm^2): 142.0%; Cell growth rate (iPS cells [2]; Essential8, 2-mercaptoethanol 0): 45.9%; Cell growth rate (iPS cells [2]; Essential8, 2-mercaptoethanol 10 μM (0.0000078% by mass)): 48.6%; Cell growth rate (iPS cells [2]; Essential8, 2-mercaptoethanol 10 μM (0.000078% by mass)): 48.1%; Cell growth rate (iPS cells [2]; Essential8, 2-mercaptoethanol 100 μM (0.00078% by mass)): 44.6%; Cell growth rate (iPS cells [2]; Essential8, 2-mercaptoethanol 1 mM (0.0078% by mass)): 40.9%; Cell growth rate (iPS cells [2]; Essential8, 2-mercaptoethanol 10 mM (0.078% by mass)): 39.3%; dependence of cell growth properties on the concentration of 2-mercaptoethanol (iPS cells [2]; Table 12): such characteristics were not observed; cell growth properties with Essential 8 or NutriStem not containing 2-mercaptoethanol versus media containing it (human iPS cells ("Tic") [3]; Table 11): a clear correlation could not be confirmed; Cell growth rate (human iPS cells ("Tic") [3]; medium Essential8, 2-mercaptoethanol 0): 45.9%; Cell growth rate (human iPS cells ("Tic") [3]; medium NutriStem, 2-mercaptoethanol 0): 98.8%; Cell growth rate (human iPS cells ("Tic") [3]; medium ReproFF2, 2-mercaptoethanol 102.4 μM (0.0008% by mass)): 93.9%; Cell growth rate (human iPS cells ("Tic") [3]; medium StemPro hESC SFM, 2-mercaptoethanol 100 μM (0.00078% by mass)): 103.7%; Cell growth rate (human iPS cells ("Tic") [3]; medium TeSR2, 2-mercaptoethanol 48.6 μM (0.00038% by mass)): 14.4%; Number of cells after 3 days (%) (iPS cells [4]): 56.8%
TAECKPQVTRGDVFTMPEDE (Peptide designed for comparative tests (Peptide-6))	significantly hindered	52.7 ± 10.3	
TAECKPQVTRGEVFTMPEDE (Peptide designed for comparative tests (Peptide-8))	not hindered	83.8 ± 14.8	
rLaminin-5: recombinant laminin (rLaminin-5: Oriental Yeast Co., ltd.)			Cell adhesion rate (%) (human iPS cells ("Tic") [1]; added amount 3.2 μg/cm^2): 155.7%
